In article PMC6814236, “Monitoring and characterizing soluble and membrane-bound ectonucleotidases CD73 and CD39” (PLoS ONE, 2019):

How the values were obtained:
[1] = biological target: T1, Recombinant Human 5'-Nucleotidase/CD73 (Homo sapiens, UniProt P21589); assay: Enzyme activity of purified CD73 (AMP-Glo assay); format: biochemical
T1 construct: purchased R&D Systems
T1 sequence (P21589 27-574): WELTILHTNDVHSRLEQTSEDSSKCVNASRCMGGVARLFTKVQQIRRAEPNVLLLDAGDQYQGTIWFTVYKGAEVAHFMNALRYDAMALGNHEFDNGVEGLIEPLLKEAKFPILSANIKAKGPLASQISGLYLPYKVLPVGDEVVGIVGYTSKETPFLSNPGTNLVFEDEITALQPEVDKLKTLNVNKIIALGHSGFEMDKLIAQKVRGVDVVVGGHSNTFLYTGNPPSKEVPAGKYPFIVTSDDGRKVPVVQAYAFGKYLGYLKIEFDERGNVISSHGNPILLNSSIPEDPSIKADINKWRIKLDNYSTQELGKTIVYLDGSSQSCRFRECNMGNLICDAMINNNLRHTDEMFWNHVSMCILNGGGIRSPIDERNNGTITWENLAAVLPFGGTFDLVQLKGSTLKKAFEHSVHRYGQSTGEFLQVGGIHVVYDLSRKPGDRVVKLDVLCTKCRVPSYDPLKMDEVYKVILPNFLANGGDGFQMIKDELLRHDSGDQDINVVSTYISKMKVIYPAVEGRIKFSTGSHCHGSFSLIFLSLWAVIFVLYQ
Description: • Determination of enzyme activity of purified CD73. In a 25 μl reaction buffer (10mM HEPES, pH 7.4, 2mM MgCl2, 1mM CaCl2, and 0.1mg/ml BSA) containing enzyme and AMP substrate at 1μM to 10μM (96-well format), enzyme activity was performed at 23°C for specified time period and terminated by the addition of equal volume (25μl) of AMP-Glo™ Reagent I containing 50 μM (final concentration) of known CD73 inhibitor, such as AMPCP. Reactions were mixed well and incubated for additional 30 min at 23°C. This was followed by the addition of 50 μl of AMP Detection Solution (10μl of AMP-Glo™ Reagent II per ml of Kinase-Glo® One Solution) and incubated for additional 60 min at 23°C before reading luminescence.

[2] = biological target: T2, CD39 (His-Tag Human) (Homo sapiens, UniProt P49961); assay: Enzyme activity of purified CD39 with ATP or ADP as substrate; format: biochemical; conditions: 0.1ng CD39, 10 μM ATP or 10 μM ADP, 30min at 37°C
T2 construct: His; purchased R&D Systems
T2 sequence (P49961 1-510): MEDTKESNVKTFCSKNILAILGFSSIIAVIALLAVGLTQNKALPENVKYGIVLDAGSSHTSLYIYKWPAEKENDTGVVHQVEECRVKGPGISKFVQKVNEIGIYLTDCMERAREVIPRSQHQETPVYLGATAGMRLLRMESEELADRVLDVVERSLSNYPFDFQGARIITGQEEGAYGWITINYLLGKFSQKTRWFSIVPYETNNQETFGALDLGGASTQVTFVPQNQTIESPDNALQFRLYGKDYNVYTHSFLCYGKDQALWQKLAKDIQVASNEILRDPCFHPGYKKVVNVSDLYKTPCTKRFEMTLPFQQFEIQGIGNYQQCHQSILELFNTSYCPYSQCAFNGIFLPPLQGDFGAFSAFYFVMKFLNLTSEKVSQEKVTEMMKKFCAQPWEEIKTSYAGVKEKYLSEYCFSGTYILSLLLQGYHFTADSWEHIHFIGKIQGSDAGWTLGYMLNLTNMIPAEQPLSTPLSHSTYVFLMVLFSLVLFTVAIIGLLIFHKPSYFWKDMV
Description: • 2 Determination of enzyme activity of purified cytosolic cN-II. Activity of purified cN-II (Human cytosolic 5'-Nucleotidase) was determined using 25μl reaction buffer (50mM HEPES, pH 7.0, 100mM KCl, 20mM MgCl2, 5mM DTT, 2.5mM dATP, and 0.1mg/ml BSA) containing enzyme and AMP substrate at 10μM (96-well format). Reaction continued at 37°C for 60 minutes or for a certain time period and terminated by the addition of equal volume (25μl) of AMP-Glo™ Reagent I. Reactions were mixed well and incubated for additional 30 min at 23°C. This was followed by the addition of 50 μl of AMP Detection Solution (10μl of AMP-Glo™ Reagent II per ml of Kinase-Glo® One Solution) and incubated for additional 60 min at 23°C before reading luminescence. • 3 Determination of enzyme activity of purified CD39. […] When ATP is used as a substrate, an equal volume of Kinase-Glo® One Solution was added to CD39 reactions and incubated for 15 min before reading luminescence using a luminometer. When ADP is used as a substrate for CD39, after enzyme reaction completion, an equal volume of AMP Detection Solution with a known CD39 known inhibitor, such as POM 1 at 50μM final concentration was added. Reactions were mixed well and incubated for 60min before reading luminescence using luminometer. For enzyme dilution, reaction buffer can be used for dilution of enzymes.

| Compound | Km ([1]; 0.01ng CD73 per reaction, varying AMP, 5min at 23°C) [µM] | inhibitory effect on purified CD39 [2] | effect on CD73 enzyme activity ([1]; purified CD73, 0.1ng, 1μM AMP, 5 min at 23°C (Fig 6)) |
| --- | --- | --- | --- |
| Nc1ncnc2c1ncn2[C@@H]1O[C@H](COP(=O)(O)O)[C@@H](O)[C@H]1O [AMP, adenosine monophosphate] | 2.53 |  |  |
| CCN(CC)c1ncnc2c1ncn2[C@@H]1O[C@H](COP(=O)(O)OP(=O)(O)C(Br)(Br)P(=O)(O)O)[C@@H](O)[C@H]1O.[Na+].[Na+].[Na+] [ARL 67156, 6-N,N-Diethyl-D-β,γ-dibromomethyleneATP trisodium salt] |  | inhibited | no effect |
